From patent publication US6828347B2, “Anti-viral multi-quinone compounds and regiospecific synthesis thereof” (Illinois Institute of Technology, priority 2002, dated 2004)

Key:
[1] = test system: uninfected CEM-T4 cells; test: Toxicity to uninfected CEM-T4 cells (MTT assay); assay type: cell-based; details: day 8, MTT
Experimental: The assays desirably measure the concentration of the multi-quinone that allows for 50% survival of CEM-T4 cells infected with HIV-1 and the concentration of multi-quinone that kills 50% of uninfected CEM-T4 cells. One skilled in the art will appreciate that other known assays or tests for determining antiviral activity may be used.
The chlorohydroxybiquinone was tested for anti-HIV activity by the CEM-T4 cytoprotection assay which measures the inhibition of viral cytopathogenic effects. CEM-T4 cells used for the assay were maintained in RPMI-1640 culture medium containing 2 millimoles L-glutamine and 25 millimoles HEPES, and supplemented with 10% fetal bovine serum, 50 units/milliliter of penicillin G, and 50 microgram/milliliter streptomycin sulfate. The antiviral assays were performed in 96-well tissue culture plates. Cells were treated with polybrene at a concentration of 2 microgram/milliliter, and 1×10^4 cells were dispensed into each well. Appropriate concentrations of the biquinone were prepared in sterile DMSO and diluted with culture medium to the desired concentrations. Each dilution of test compound was added to multiple wells of cells, and the cells were incubated at 37° C. for one hour. Cells were then infected at a multiplicity of infection of 0.025 TCID50/cell by the addition of a diluted stock of the HTLV-IIIB strain of HIV-1. […]
Assay plates were incubated at 37° C. in a humidified 5% carbon dioxide (CO2) atmosphere and examined microscopically for toxicity and/or cytopathogenic effect. Once the viral cytopathogenic effect was maximal (the eighth day post-infection), the surviving cells in each test well were quantified using the MTT assay known in the art and described in Pauwels et al., “Rapid and Automated Tetrazolium-based Colorimetric Assay for the Detection of Anti-HIV Compounds,” J. Virol. […] When a dose-dependent effect for either anti-HIV activity or cytotoxicity was observed, values for the 50% effective dose were calculated using the dose-effect analysis software of Chou and Chou, available from Elsevier-Biosoft.

[2] = test system: retroviruses such as an HIV; details: as disclosed in the Boyd et al. Patents; cited from earlier work

Row | Compound | TD50 (concentration to cause reduction of cell growth by 50% of uninfected controls) [1] [µM] | antiviral activity (growth and replication of viruses) [2]
1 | CC(C)=CCC[C@]1(C)C=Cc2c(ccc3c2C(=O)C(O)=C(C2=C(Cl)C(=O)c4ccccc4C2=O)C3=O)O1 [chlorohydroxybiquinone, 8-(3-Chloro-1,4-dioxo-1,4-dihydronapthalen-2-yl)-9-hydroxy-3-methyl-3-(4-methyl-pent-3-enyl)-3H-benzo[f]chromene-7,10-dione] | 2.7 | –
2 | COC1=C(C2=C(Cl)C(=O)c3ccccc3C2=O)C(=O)c2ccc3c(c2C1=O)C=C[C@@](C)(CCC=C(C)C)O3 [chloromethoxybiquinone, 8-(3-Chloro-1,4-dioxo-1,4-dihydro-napthalen-2-yl)-9-methoxy-3-methyl-3-(4-methyl-pent-3-enyl)-3H-benzo[f]chromene-7,10-dione] | 5.4 | –
3 | CC(C)=CCC[C@]1(C)C=Cc2c(ccc3c2C(=O)C(O)=C(C2=C(C4=C(O)C(=O)c5c(ccc6c5C=C[C@@](C)(CCC=C(C)C)O6)C4=O)C(=O)c4c(ccc5c4C=C[C@@](C)(CCC=C(C)C)O5)C2=O)C3=O)O1 [conocurvone] | – | inhibit the growth and replication of viruses
4 | COC1=C(C2=C(C3=C(O)C(=O)c4ccccc4C3=O)C(=O)c3ccccc3C2=O)C(=O)c2ccc3c(c2C1=O)C=CC(C)(C)O3 [trimeric quinone, 3-Hydroxy-3′-(9-methoxy-3,3-dimethyl-7,10-dioxo-7,10-dihydro-3H-benzo[f]chromen-8-yl)-2,2′-binaphthalenyl-1,4,1′,4′-tetraone] | 17 | –
